Measurements taken from patent US11617777B2, “Cytotoxic and anti-mitotic compounds, and methods of using the same” (ZYMEWORKS BC INC., priority 2013, dated 2023).

Legend:
HCC1954 cells [1] = test: Cytotoxicity of compounds, CellTiter-Glo; format: cell-based; settings: Homo sapiens
Excerpt: (§1) Cell lines used: Human T-cell leukemia cell line Jurkat (ATCC: TIB-152); HCC1954 (ATCC: CRL. 2338); Human Pancreatic cells lines: AsPC-1 (ATCC: CRL-1682), BxPC-3 (ATCC: CRL.1687), HPAF-II (ATCC: CRL.1997), MiaPaCa2 (ATCC: CRL.1420), PANC-1 (ATCC: CRL.1469), Capan-1 (ATCC: HTB-79), Capan-2 (ATCC: HTB-80) and the Human gastric carcinoma cell line NCI-N87 (ATCC: CRL. 5822); AML-193 (ATCC: CRL.9589), CCRF-CEM (ATCC: CCL-119), DU145 (ATCC: HTB-81), PC-3 (ATCC: CRL.1435), A-431 (ATCC: CRL.1555), HT-29 (ATCC: HTB-38), A-172 (ATCC: CRL.1620), NCI-H358 (ATCC: CRL.5807), A549 (ATCC: CCL-185), Colo-205 (ATCC: CCL-222), MDA-MB-231 (ATCC: HTB-26), OVCAR-3 (ATCC: HTB-161), OV-90 (ATCC: CRL.11732), OE19 (Sigma: 96071721), RT 112/84 (Sigma: 85061106).
(§2) On the day prior to adding compounds, HCC1954 AsPC-1, BxPC-3, HPAF-II, MiaPaCa2, PANC-1, Capan-1, Capan-2 and NCI-N87 cells were added to opaque-walled 96-well tissue culture-treated microtiter plates using complete growth medium at a density of 2500 cells/100 microlitre (uL) of medium. These adherant cell lines cells were incubated for one night at 37° C./5% CO2 to allow the cells to attach to the microtiter plate surface. On the day that compounds were added, Jurkat cells are added to separate 96-well microtiter plates at 2500 cells/100 uL using the same growth medium as HCC1954. Compound were first serially diluted using dimethyl sulfoxide, and then the prepared dilutions are added to complete growth medium at five-times the final concentration—compounds were then titrated 1:3, eight steps. A control with no compound (growth medium alone) was included on each microtiter plate in sextuplicate. The prepared compounds titrations were added (twenty-five uL/well) in triplicate. The cells and compound titrations were incubated at 37° C./5% CO2 for three nights. After the incubation, cell viability is measured using CellTiter-Glo® reagent by adding thirty uL of prepared CellTiter-Glo® to each assay well. The assay is incubated for at least twenty minutes in the dark prior to measuring emitted luminescence using a microplate luminometer (500 ms integration time). The collected relative luminescence units (RLU) are converted to % cytotoxicity using the Growth medium alone control mentioned above (% Cytotoxicity=1−[Well RLU/average medium alone control RLU]).
(§3) GraphPad Prism was used for generation of EC50 values using three parameter non-linear regression curve fitting.

Jurkat cells [2] = test: Cytotoxicity of compounds, CellTiter-Glo; format: cell-based, Human; settings: Homo sapiens, Jurkat
Procedure, shortened: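 HCC1954 plated at 2500 cells/100 uL and attached overnight; Jurkat plated at 2500 cells/100 uL on the day of dosing. Cells exposed to 8-step 1:3 compound titrations for three nights at 37° C./5% CO2, in triplicate. CellTiter-Glo luminescence converted to % cytotoxicity versus medium-only control; EC50 by three-parameter nonlinear regression.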

HCC1954 cells [3] = test: Cytotoxicity assay of SMCC- and LC-SPDP-linked ADCs and free compounds; format: cell-based; settings: Homo sapiens
Method: (§4) The purified ADCs were then analysed for: total protein content (BCA assay, Pierce microBCA protocol), relative affinity for antigen binding (equilibrium native binding), and selective cytotoxic killing of HER2-positive cells (HCC1954) compared HER2-negative cells (Jurkat).
(§5) On the day prior to adding test articles, HCC1954 cells were added to opaque-walled 96-well tissue culture-treated microtiter plates using complete growth medium at a density of 2500 cells/100 microlitre (uL) of medium. The HCC1954 cells were incubated for one night at 37° C./5% CO2 to allow the cells to attach to the microtiter plate surface. On the day that test articles were added, Jurkat cells are added to separate 96-well microtiter plates at 2500 cells/100 uL using the same growth medium as HCC1954. To compare the ADC killing to that obtained from the free-compounds, the n-acyl sulfonamide compounds were first serially diluted using dimethyl sulfoxide or DMA, and then the prepared dilutions are added to complete growth medium at five-times the final concentration—compounds were then titrated 1:3, eight steps. To test the ADCs, they were diluted directly in growth medium at five-times the final concentration—ADCs were then titrated 1:3, eight steps. A control with no test article present (growth medium alone) was included on each microtiter plate in sextuplicate. The prepared compound/ADC titrations were added (twenty-five uL/well) in triplicate to both the HCC1954 cells and Jurkat cells. The cells and titrations were incubated at 37° C./5% CO2 for three nights. After the incubation, cell viability was measured using CellTiter-Glo® reagent by adding thirty uL of prepared CellTiter-Glo® to each assay well. The assay was incubated for at least twenty minutes in the dark prior to measuring emitted luminescence using a microplate luminometer (500 ms integration time). The collected relative luminescence units (RLU) were converted to % cytotoxicity using the Growth medium alone control mentioned above (% Cytotoxicity=1−[Well RLU/average medium alone control RLU]).

Jurkat cells [4] = test: as above; format: cell-based; settings: Homo sapiens
Method: as §4, §5

AsPC-1 = test: Cytotoxicity of compounds, CellTiter-Glo; format: cell-based; settings: Homo sapiens, ASPC1, Table 5, read-out: Cytotoxicity (EC50) AsPC-1
Excerpt: (§6) FIG. 1 summarizes the data for compounds A, B, C, D, and E when tested using the Human mammary carcinoma cell line HCC1954 or Human T-cell leukemia cell line Jurkat. FIGS. 2-6 show the cytotoxicity data plots for individual compounds A-E. Tables 2-6 summarize the results of additional cytotoxicity assays.
as §1, §2, §3

BxPC-3 = test: Cytotoxicity of compounds, CellTiter-Glo; format: cell-based; settings: Homo sapiens, Table 5, read-out: Cytotoxicity (EC50) BxPC-3
Excerpt: as §6, §1, §2, §3

HPAF-II = test: Cytotoxicity of compounds, CellTiter-Glo; format: cell-based; settings: Homo sapiens, Table 5, read-out: Cytotoxicity (EC50) HPAF-II
Excerpt: as §6, §1, §2, §3

MiaPaCa2 = test: Cytotoxicity of compounds, CellTiter-Glo; format: cell-based; settings: Homo sapiens, MIA PaCa-2; Table 5; MinPaCa2; read-out: Cytotoxicity (EC50) MinPaCa2
Excerpt: as §6, §1, §2, §3

NCI-N87 = test: Cytotoxicity of compounds, CellTiter-Glo; format: cell-based; settings: Homo sapiens, Table 5, read-out: Cytotoxicity (EC50) NCI-N87
Excerpt: as §6, §1, §2, §3

PANC-1 = test: Cytotoxicity of compounds, CellTiter-Glo; format: cell-based; settings: Homo sapiens, Table 5, read-out: Cytotoxicity (EC50) PANC-1
Excerpt: as §6, §1, §2, §3

[5] = HCC1954, Table 4, Cytotoxicity of Compounds on HCC-1954 Cells, read-out: EC50
[6] = Table 1, HCC1954 cells (HER2+), three nights, read-out: HCC1954 cells (HER2+) EC50
[7] = Table 2, HCC1954, read-out: HCC1954 EC50
[8] = Table 1, Jurkat cells (HER2−), three nights, read-out: Jurkat cells (HER2−) EC50
[9] = Table 3, Cytotoxicity of Compounds on Jurkat Cells, read-out: EC50
[10] = HCC1954, Table 10, Coupling #2, read-out: HCC1954 Best-fit EC50
[11] = Table 10, Coupling #2, read-out: Jurkat Best-fit EC50

Question: Which results are given for `CN[C@H](C(=O)N[C@H](C(=O)N(C)[C@H](/C=C(\C)C(=O)NS(=O)(=O)CCS)C(C)C)C(C)(C)C)C(C)(C)c1ccccc1` [Compound B, (S,E)-N-(2-mercaptoethylsulfonyl)-2,5-dimethyl-4-((S)—N,3,3-trimethyl-2-((S)-3-methyl-2-(methylamino)-3-phenylbutanamido)butanamido)hex-2-enamide]?
Answer: EC50 (HCC1954 cells [1]; [5]): 13 nM; EC50 (HCC1954 cells [1]; [6]): 8.1 nM; EC50 (HCC1954 cells [1]; [7]): 13 nM; EC50 (Jurkat cells [2]; [8]): 10.5 nM; EC50 (Jurkat cells [2]; Table 2, read-out: Jurkat EC50): 59 nM; EC50 (Jurkat cells [2]; [9]): 59 nM; EC50 (HCC1954 cells [3]; HCC1954, Table 9, Coupling #1, read-out: HCC1954 Best-fit EC50): 8.1 nM; EC50 (HCC1954 cells [3]; [10]): 9.2 nM; EC50 (Jurkat cells [4]; Table 9, Coupling #1, read-out: Jurkat Best-fit EC50): 10 nM; EC50 (Jurkat cells [4]; [11]): 36 nM

Question: What does the source list for `CN[C@H](C(=O)N[C@H](C(=O)N(C)[C@H](/C=C(\C)C(=O)NS(=O)(=O)c1ccc(CS)cc1)C(C)C)C(C)(C)C)C(C)(C)c1ccccc1` [Compound C, (S,E)-N-(4-(mercaptomethyl)phenylsulfonyl)-2,5-dimethyl-4-((S)—N,3,3-trimethyl-2-((S)-3-methyl-2-(methylamino)-3-phenylbutanamido)butanamido)hex-2-enamide]?
Answer: EC50 (HCC1954 cells [1]; [5]): 1.3 nM; EC50 (HCC1954 cells [1]; [6]): 0.67 nM; EC50 (HCC1954 cells [1]; [7]): 1.3 nM; EC50 (Jurkat cells [2]; [8]): 0.57 nM; EC50 (Jurkat cells [2]; Table 2, read-out: Jurkat EC50): 1.9 nM; EC50 (Jurkat cells [2]; [9]): 1.9 nM; EC50 (HCC1954 cells [3]; [10]): 0.67 nM; EC50 (Jurkat cells [4]; [11]): 0.57 nM

Question: What does the source list for `CN[C@H](C(=O)N[C@H](C(=O)N(C)[C@H](/C=C(\C)C(=O)NS(=O)(=O)c1ccc(C)cc1)C(C)C)C(C)(C)C)C(C)(C)c1ccccc1` [Compound D, (S,E)-2,5-dimethyl-N-tosyl-4-((S)—N,3,3-trimethyl-2-((S)-3-methyl-2-(methylamino)-3-phenylbutanamido)butanamido)hex-2-enamide]?
Answer: EC50 (HCC1954 cells [1]; [5]): 0.06 nM; EC50 (HCC1954 cells [1]; [7]): 0.06 nM; EC50 (Jurkat cells [2]; [8]): 0.043 nM; EC50 (Jurkat cells [2]; Table 2, read-out: Jurkat EC50): 0.04 nM; EC50 (Jurkat cells [2]; [9]): 0.033 nM; EC50 (AsPC-1): 0.17 nM; EC50 (BxPC-3): 0.0664 nM; EC50 (HPAF-II): 0.177 nM; EC50 (MiaPaCa2): 0.136 nM; EC50 (NCI-N87): 0.272 nM; EC50 (PANC-1): 0.806 nM
